Data from patent US20260297136A1, “PEPTIDES WITH LIPOLYTIC, ANTI-LIPOGENIC, ANTIFIBROTIC AND ANTI-INFLAMMATORY ACTIVITY” (FUNDACIÓ HOSPITAL UNIVERSITARI VALL D'HEBRON - INSTITUT DE …, priority 2023, published 2026).

Key:
HepG2 cells = assay: Hepatic lipogenesis gene expression in HepG2 cells (24 h), Example 7; type: cell-based, human; conditions: 40 μg/ml, vs vehicle
Excerpt: FIG. 32. Effect of GP6 and modified peptides on hepatic lipogenesis in HepG2 cells. Each bar within each group represents mRNA levels of a key hepatic lipogenic enzyme, from left to right: Acetyl-CoA Carboxylase (ACC), ATP Citrate Lyase (ACLY) and Fatty Acid Synthase (FAS), and a key transcription factor regulating several lipogenic enzymes such as PPARγ (PPARγ).
Cell culture reagents were from Life Technologies Inc (Invitrogen SA, Barcelona, Spain). HepG2 hepatoblastoma cells (cat. no. HB-8065; ATCC, LGC Standards SLU, Barcelona, Spain) were maintained in Dulbecco's modified Eagle medium (DMEM) supplemented with 10% fetal bovine serum and antibiotics.
• HepG2 cells were cultured for 5 day in the absence or presence of 30 mM fructose. Cells cultured in 30 mM fructose were daily treated with vehicle, Telmisartan, Semaglutide or EDL6D. • HepG2 cells were cultured for 24 h in the absence or presence of GP6 (40 μg/ml), GP10 (40 μg/ml), GP11 (40 μg/ml), GP12 (40 μg/ml), GP13 (40 μg/ml) or SHBG (20 nM). • HepG2 cells were cultured in the absence or presence of 30 mM fructose and treated for 2 h with vehicle or GP4 (40 μg/ml), GP6 (40 μg/ml), GP7 (40 μg/ml), GP8 (40 μg/ml), GP9 (40 μg/ml), GP10 (40 μg/ml), GP11 (40 μg/ml), GP12 (40 μg/ml), GP13 (40 μg/ml) or SHBG (20 nM).
Total RNA was extracted from HepG2 and LX-2 cells using TRIzol reagent (Invitrogen SA). Reverse transcription was performed at 42° C. for 50 minutes using […] of total RNA, 200 U of Superscript II, and an oligo-dT primer and reagents provided by Invitrogen. An aliquot of the reverse transcription product was amplified in a […] reaction using SYBRGreen (Invitrogen SA) with appropriate oligonucleotide primer pairs corresponding to human SHBG, ACC, FAS, ACLY, PPARG, and 18S and mouse ACC, FAS, ACLY, PPARG, Col1A1 and 18S. Results were analyzed using the 7000 Sequence Detection System program (Applied Biosystems, Thermo Fisher Scientific, Barcelona, Spain) (Shez-Lopez et al Endocrinology 2017).

LX-2 cells = assay: Fibrosis in LX-2 cells: Col1A1 mRNA induced by TGFβ1, Example 3; type: cell-based, human; conditions: 24 h
Description: FIG. 3 Human hepatic stellate cell line LX-2 was treated with vehicle (DMSO) or TGFβ1 (10 ng/ml) in the absence or presence of GP6 (10 or 40 μg/ml) for 24 h. RNA was extracted and mRNA levels of collagen 1A1 (Col1A1) relative to 18S were measured by RTPCR.
Cell culture reagents were from Life Technologies Inc (Invitrogen SA, Barcelona, Spain). HepG2 hepatoblastoma cells (cat. no. HB-8065; ATCC, LGC Standards SLU, Barcelona, Spain) were maintained in Dulbecco's modified Eagle medium (DMEM) supplemented with 10% fetal bovine serum and antibiotics. HepG2 cells were cultured for 5 day in the absence or presence of 30 mM fructose. Cells cultured in 30 mM fructose were daily treated with vehicle, Telmisartan, Semaglutide or GP6. LX-2 human hepatic stellate cells (SCC064) were maintained in DMEM supplemented with 2% fetal bovine serum and antibiotics. […]
Total RNA was extracted from HepG2 and LX-2 cells using TRIzol reagent (Invitrogen SA). […] Results were analyzed using the 7000 Sequence Detection System program (Applied Biosystems, Thermo Fisher Scientific, Barcelona, Spain) (Sex Hormone-Binding Globulin Reduction in Metabolic Disorders May Play a Role in NAFLD Development.Saez-Lopez C, Barbosa-Desongles A, Hernandez C, Dyer R A, Innis S M, Simo R, Selva D M. Endocrinology. 2017 Mar. 1; 158(3):545-559. doi: 10.1210/en.2016-1668).

CC[C@@H](C)[C@@H](NC(=O)[C@H](NC(=O)CNC(=O)[C@@H](CCC(=O)O)NC(=O)[C@H]1CCCN1C(=O)[C@@H](CC(=O)O)NC(=O)[C@@H](Cc1c[nH]c2ccccc12)NC(=O)[C@H](NC(=O)[C@@H](CCCNC(=N)N)NC(=O)[C@H](NC(=O)[C@@H](CCC(=O)O)NC(=O)[C@@H](Cc1ccccc1)NC(=O)[C@@H](CO)NC(=O)[C@@H](CO)NC(=O)[C@@H](CO)NC(=O)[C@H](NC(=O)[C@@H](CCCCN)NC(=O)[C@H](N)[C@H](C)O)[C@H](C)O)C(C)C)[C@H](C)O)C(C)C)C(=O)N[C@H](Cc1ccccc1)C(=O)N[C@H](Cc1ccc(O)cc1)C(=O)O [GP6]
ACC mRNA levels (HepG2 cells): reduced the mRNA levels | ACLY mRNA levels (HepG2 cells): reduced the mRNA levels | FAS mRNA levels (HepG2 cells): reduced the mRNA levels | PPARγ mRNA levels (HepG2 cells): reduced the mRNA levels | reduction of mRNA levels of collagen 1A1 induced by TGFβ1 (LX-2 cells; 10 μg/ml): 28% | reduction of mRNA levels of collagen 1A1 induced by TGFβ1 (LX-2 cells; 40 μg/ml): 45%
